We go through 14 molecules from patent publication US20150328109A1, “DERMAL COMPOSITIONS CONTAINING UNNATURAL HYGROSCOPIC AMINO ACIDS” (MEDPHARM LIMITED, priority 2012, published 2015).

Like-named read-outs stand apart in the source and are kept apart here.

Data set [1] in a line: Deliquescence relative humidity (DRH) of a saturated solution in a sealed vessel at 32° C. Type of data set: physicochemical. Particulars: saturated solution in water (1 mL), 24 hours. The method, then:
This experiment was to measure the deliquescence relative humidity (DRH) caused by a saturated amino acid solution in a sealed vessel at 32° C.; the lower the DRH, the greater the water holding capacity of the solution measured. Deliquescence relative humidity is the relative humidity at which the compound deliquesces, i.e. the relative humidity in which the compound absorbs so much water that it dissolves within the absorbed water.
The apparatus is maintained at 32° C. The temperature of 32° C. was chosen for being the temperature of outer stratum corneum. As the amino acids are to eventually be delivered to the outer layer of the skin, then the water holding capacity of these compounds at 32° C. is important.
The saturated solution is prepared as above by adding the amino acid to water (1 mL, 32° C.), whilst swirling. The total amino acid is weighed before adding to the water and the remaining amino acid so that the mass of compound used can be determined. The saturated solution (1 mL, 32° C.) is then transferred into the vial, again because of partial molar volume causing a change in volume by the addition of the amino acid to the water.
The temperature and % RH (% Relative Humidity) shown on the thermo-hygrometer are recorded every 30 minutes until the % RH remains constant. The temperature confirms that the temperature experienced by the sample is 32° C.

In data set [2] the test system is RHE tissues. The experiment in a line: RHE irritation assessment Method 1: SkinEthic Skin Irritation Test-42 bis assay (MTT), plus 24 h contact time. The format is cell-based, human. Particulars: 42 min and 24 h exposure, 5 and 1% w/v α-H-G, 10 and 1% w/v L-h-S in water. From the text:
The purpose of this experiment was to investigate the potential of alpha-hydroxyglycine (α-H-G) and L-homoserine (L-h-S) to cause skin irritation. The method was based on the validated SOP for the “The SkinEthic Skin Irritation Test-42 bis assay” in accordance to OECD guideline Test No. 439: In Vitro Skin Irritation. The protocol is provided in Section 1.2. Further details on the method can be found in the SkinEthic™ RHE SOP, Version 2.1 (July 2009), SkinEthic skin irritation test-42 bis test method for the prediction of acute skin irritation of chemicals: 42 minutes application+42 hours post-incubation. Available at: [http://ecvam.jrc.ec.europa.eu].
In addition, a further experiment was performed where the contact time of the test solution with the tissue was increased to 24 h. Following which point an MTT assay was used to determine the tissue viability and the test solutions potential to cause irritation.
The following steps were completed on receipt of the tissues: • (i) Wells of 6-well plates were filled with 1 mL growth culture medium. • (ii) Tissue were removed from their packaging, cleaned to remove the transport agarose and inspected for signs of damage; damaged tissues were discarded. • (iii) The tissue were transferred into the growth culture medium then incubated at 37° C., 5% CO2 until application of the test solution.
1.2.1.1.6 Applications of 5 and 1% w/v α-H-G and 10 and 1% w/v L-h-S and Controls • (i) 16 μL±0.5 μL of the test solutions (5% w/v α-hydroxyglycine (α-H-G) in water, 1% w/v α-hydroxyglycine (α-H-G) in water, 10% w/v L-homoserine (L-h-S) in water, 1% w/v L-homoserine (L-h-S) in water) and negative (PBS) and positive (5% SDS) controls were dispensed onto the top of the epidermal tissue, using positive displacement pipette. […]

Data set [3] is described as follows: Snake study: water uptake into snake skin after treatment with amino acid solution. Particulars: 24 h treatment with 1.33M amino acid solution, dried, then 40% RH. The arrangement: species or system Elaphe guttata, the American corn snake.
Protocol: • All experiments were performed in triplicate (i.e. three separate solutions, three pieces of skin, one per solution). […] Each piece was weighed and placed directly into one the of the amino acid solutions, one piece of snake skin per solution. • After 1 hour, the snake skin was removed from the solution and blotted dry on filter paper. The weight of the snake skin was recorded before the same snake skin was returned to the amino acid solution. • After an additional 23 hours (24 hours in total), the snake skin was again blotted dry on filter paper and weighed. • The snake skin, now having absorbed the test amino acid, was then placed in a vacuum desiccator over silica (0% RH) for 48 hours before being weighed.
• A 10% w/w concentration solution of each compound is made by stirring the compound (100 mg) in water (1 mL). Three separate solutions of each compound are made separately so that the experiment can be carried out in triplicate simultaneously. […] The weight of the snake skin is recorded before the same snake skin is returned to the same compound solution. • After an additional 23 hours (24 hours in total), the snake skin is again blotted dry on filter paper and weighed. • The snake skin is then placed in a vacuum desiccator over silica (0% relative humidity (RH)) for 48 hours before being weighed. […]
In data set [4] the test system is RHE tissues. Briefly: RHE irritation assessment Method 2: Mattek's MTT effective time (ET-50) assay. Type of data set: cell-based, human. From the text:
Method 1 was used to investigate the potential for alpha-hydroxylglycine (α-H-G) and L-homoserine (L-h-S) to cause skin irritation. The protocol is primarily designed and validated for single compounds rather than solutions. Therefore to provide further insight into the potential of N-hydroxyserine and N-hydroxylglycine to cause skin irritation a second protocol was investigated using Mattek's MTT effective time (ET-50) assay which is designed to test mixtures of compounds. In addition two commercially available amino acid related compound (L-serine and glycine) were selected and tested as comparators for N-hydroxyserine and N-hydroxylglycine. […] As a general guideline, the following groupings can be used in assigning expected in vivo irritancy responses based on the ET-50 results obtained: The irritation assessment of the solutions was performed using the protocol described below. Each of the test solutions; […] Damaged tissues were discarded. • (iii) The tissue were transferred into the assay medium and incubated at 37° C., 5% CO2 until the application of the test solutions; […] The working MTT solution was prepared using the following procedure: • (i) MTT concentrate was removed from the freezer and allowed to thaw. The concentrate was diluted with the MTT diluent solution (1 mL of concentrate to 4 mL of MTT diluent solution). • (ii) MTT solution from Step (i) was centrifuged at a g-force of 300 for 5 min to remove any particulates. • (iii) The supernatant of the MTT solution from Step (ii) was stored in the dark at 4° C. for a maximum period of 24 h and used as required. […] The plates were incubated for 3 h (+/−5 min) at 37° C., 5% CO2 and 95% humidified atmosphere. • (vi) The treated tissues were subsequently transferred into a new plate filled with 1 mL of extractant solution. • (vii) The plates were sealed using Parafilm® to stop evaporation and protected from light using foil before extract at 2-8° C. to minimise evaporation. • (viii) Following extraction the RHE tissue were removed from the wells and an additional 1 mL of extractant solution was added. Using a pipette the extraction solution was mixed and made visually homogenous. • (ix) The solution from Step (viii) was transferred in to n=3 wells (200 μL per well) using an automatic pipette of a 96 well plate and the optical density was measured at a wavelength of 570 nm.

For data set [5], the system named is RHE tissues. The note with it: cited from earlier work.
[6] abbreviates: mass used printed beside the name.

In data set [1] (setting [6]), `NC(=O)C[C@H](N)C(=O)O` [Asparagine] showed a DRH of 91.2%.

With `NC(O)C(=O)O` (stereo not drawn) [α-hydroxyglycine, 2-Amino-2-hydroxyacetic acid], the “skin irritation potential (viability below 50% of negative control = irritant)” value in the data set on RHE tissues [2] (listed as alpha-hydroxyglycine) was “non-irritants”; with RHE tissues [2] (listed as α-H-G) it was “non-irritating”. In data set [3], the “average percentage weight increase after 24 h at 40% RH” value is recorded as “particularly advantageous properties”. In the data set on RHE tissues [4] (10% w/v N-H-S, 1% w/v N-H-G in water, dosing periods 2, 6 and 24 h), the “ET-50 (exposure time to reduce viability to 50% of the control)” value is less than 24 h. Besides, the “expected in vivo irritancy from ET-50” value in the data set on RHE tissues [4] (10% w/v N-H-S, 1% w/v N-H-G, 10% w/v L-Serine, 10% w/v Glycine in water) was “non-irritant”. The DRH in data set [1] (setting [6]) is 79.73%; in data set [1] (mass used printed beside the name, listed as Hydroxyglycine) it was 79.7%.

With `NCC(=O)O` [Glycine, reference compound], in the data set on RHE tissues [4], the “expected in vivo irritancy from ET-50” value was “non-irritants” and the “impact on the viability of the RHE tissues” value was “no significant impact”. In data set [1] (setting [6]), this molecule showed a DRH of 79.13%.

Consider `N[C@@H](CO)C(=O)O` [L-serine, reference compound], for which, in the data set with RHE tissues [4], the “expected in vivo irritancy from ET-50” value is “non-irritants” and the “impact on the viability of the RHE tissues” value is given as “no significant impact”. In data set [1] (setting [6]), this molecule came in with a DRH of 82.53%.

In the case of `N[C@H](CO)C(=O)O` [D-serine], the DRH came to 85.40% in data set [1] (D-serine 0.95 g) and 82.13% in data set [1] (D-serine 1.2 g).

With Triton X-100 [1% Triton X-100], in the data set on RHE tissues [5], the “ET-50 (hrs), general guideline examples” value is 4-12 moderate to mild hrs.

Take `N[C@@H](CS)C(=O)O` [Cysteine]: in data set [1] (setting [6]), the DRH is on record as 89.6%.

In data set [1] (setting [6]), `O=[N+]([O-])[O-].O=[N+]([O-])[O-].[Zn+2]` [Zinc Nitrate] came in with a DRH of 45.8%.

On to `C[C@@H](O)[C@H](N)C(=O)O` [Threonine], for which the DRH in data set [1] (setting [6]) came to 86.0%.

In the case of `O=[N+]([O-])O` [conc. Nitric acid, Nitric acid], in the data set with RHE tissues [5] (guideline groupings of the assay), the “ET-50 (hrs), general guideline examples” value is recorded as <0.5 strong/severe, possible corrosive hrs.

With `C[C@H](N)C(=O)O` [Alanine], the DRH in data set [1] (setting [6]) was found to be 83.1%.

Take `N[C@@H](CC(=O)O)C(=O)O` [Aspartic acid]: in data set [1] (setting [6]), the DRH amounted to 100.0%.

Molecule `NC(N)=O` [Urea] displayed a DRH in data set [1] (setting [6]) of 75.03%.

As to `O=C(O)[C@@H]1CCCN1` [L-Proline], the DRH in data set [1] (setting [6]) was 44.6%.
